Tests used:
[1] = target: T1, Estrogen receptor (Mus musculus) (UniProt O08537+P19785); experiment: Anti-uterotrophic effect in immature mice at 25 ug; type: functional
[2] = target: T1, Estrogen receptor (Mus musculus); experiment: Anti-uterotrophic effect in mice at 25 ug; type: functional
[3] = target: T1, Estrogen receptor (Mus musculus); experiment: Anti-uterotrophic effect in mice at 1.0 ug; type: functional
[4] = target: Estrogen receptor (Bos taurus) (UniProt Q9XSB5+P49884); experiment: Inhibition of [3H]estradiol binding to calf uterine estrogen receptor; type: protein assay
[5] = target: T1, Estrogen receptor (Mus musculus); experiment: Anti-uterotrophic effect in immature mice at 1.0 ug; type: functional
[6] = target: T1, Estrogen receptor (Mus musculus); experiment: Anti-uterotrophic effect in mice at 5 ug; type: functional
[7] = target: T1, Estrogen receptor (Mus musculus); experiment: Anti-uterotrophic effect in immature mice at 5 ug; type: functional
[8] = target: T1, Estrogen receptor (Mus musculus); experiment: Anti-uterotrophic effect in immature mice at 100 ug; type: functional
[9] = target: T1, Estrogen receptor (Mus musculus); experiment: Anti-uterotrophic effect in mice at 100 ug; type: functional

T1 sequence (O08537 whole entry, looked up): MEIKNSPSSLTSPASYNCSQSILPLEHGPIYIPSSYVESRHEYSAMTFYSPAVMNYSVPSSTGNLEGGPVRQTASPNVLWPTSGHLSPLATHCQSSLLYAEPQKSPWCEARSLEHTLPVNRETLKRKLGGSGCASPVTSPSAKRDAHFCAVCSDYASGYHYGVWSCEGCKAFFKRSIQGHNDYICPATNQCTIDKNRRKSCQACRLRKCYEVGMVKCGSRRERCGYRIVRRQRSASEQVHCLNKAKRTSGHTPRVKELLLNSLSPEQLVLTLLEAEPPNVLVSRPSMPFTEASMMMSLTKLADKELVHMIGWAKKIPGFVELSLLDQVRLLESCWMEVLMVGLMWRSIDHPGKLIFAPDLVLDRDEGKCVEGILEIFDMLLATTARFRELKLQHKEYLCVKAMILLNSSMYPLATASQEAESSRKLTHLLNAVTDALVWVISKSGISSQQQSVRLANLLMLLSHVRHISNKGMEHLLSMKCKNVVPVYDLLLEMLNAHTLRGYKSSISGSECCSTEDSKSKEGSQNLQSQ
T1 sequence (P19785 whole entry, looked up): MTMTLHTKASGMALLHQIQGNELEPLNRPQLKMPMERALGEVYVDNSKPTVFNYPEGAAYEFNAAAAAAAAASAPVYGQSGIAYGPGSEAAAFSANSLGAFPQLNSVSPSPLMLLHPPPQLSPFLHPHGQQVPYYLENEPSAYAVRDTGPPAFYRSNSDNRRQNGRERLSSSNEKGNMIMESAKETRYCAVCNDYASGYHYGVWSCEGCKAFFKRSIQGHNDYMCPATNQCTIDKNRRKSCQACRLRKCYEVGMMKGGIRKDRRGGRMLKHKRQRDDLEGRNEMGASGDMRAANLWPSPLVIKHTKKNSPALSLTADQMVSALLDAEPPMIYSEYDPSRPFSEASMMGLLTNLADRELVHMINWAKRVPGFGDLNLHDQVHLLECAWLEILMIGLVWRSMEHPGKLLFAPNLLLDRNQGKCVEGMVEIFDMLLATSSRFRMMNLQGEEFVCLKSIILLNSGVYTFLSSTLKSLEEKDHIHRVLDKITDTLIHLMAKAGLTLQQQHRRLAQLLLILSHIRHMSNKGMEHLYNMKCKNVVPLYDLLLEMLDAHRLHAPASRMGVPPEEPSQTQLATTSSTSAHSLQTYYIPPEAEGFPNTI

inhibition [1] | Effect [2] | Effect [3] | RBA [4] | inhibition [5] | Effect [6] | inhibition [7] | inhibition [8] | Effect [9] | Structure (SMILES)
0% | 44.7 mg 100g-1 | 30.3 mg 100g-1 | 2% | 21% | – | – | – | – | CC(=O)c1cccc(C2=C(C(C)C)c3cc(C(C)=O)ccc3C2(C)C)c1
9% | 40.2 mg 100g-1 | 30.1 mg 100g-1 | 1.8% | 48% | 34.8 mg 100g-1 | 30% | – | – | CCC1=C(c2cccc(C(C)=O)c2)C(C)c2ccc(C(C)=O)cc21 (configuration not stated)
– | – | – | 2.2% | – | – | – | – | – | CC/C(=C(/CC)c1cccc(C(C)=O)c1)c1cccc(C(C)=O)c1
8% | 40.4 mg 100g-1 | 33.8 mg 100g-1 | 1% | 31% | 27.4 mg 100g-1 | 54% | 5% | 41.3 mg 100g-1 | CC/C(=C(/CC)c1ccc(C(C)=O)c(C(C)=O)c1)c1ccc(C(C)=O)c(C(C)=O)c1
11% | 32.5 mg 100g-1 | 29 mg 100g-1 | 1.7% | 28% | – | – | – | – | CC(=O)c1ccc(C2=C(C(C)C)c3cc(C(C)=O)c(C(C)=O)cc3C2(C)C)cc1C(C)=O

From ChEMBL document CHEMBL1123458, “2-Phenylindenes: development of a new mammary tumor inhibiting antiestrogen by combination of estrogenic side effect lowering structural elements” (1986)
